ChEMBL document CHEMBL3045592, “Studies of O,O-dimethyl α-(2,4-dichlorophenoxyacetoxy)ethylphosphonate (HW02) as a new herbicide. 1. Synthesis and herbicidal activity of HW02 and analogues as novel inhibitors of pyruvate dehydrogenase complex” (J Agric Food Chem, 2011)
pIC50: −log10 of the molar value.

Columns and labels:
[1] = tested on: Brassica rapa subsp. oleifera; assay: Post-emergence herbicidal activity against Brassica rapa subsp. oleifera Si Yue Man assessed as growth inhibition at 225 ai g/ha after 20 days by green house test; format: functional
Medicago sativa [2] = assay: Post-emergence herbicidal activity against Medicago sativa (alfalfa) assessed as growth inhibition at 150 ai g/ha after 20 days by green house test; format: functional
Eclipta prostrata [3] = assay: Post-emergence herbicidal activity against Eclipta prostrata assessed as growth inhibition at 18.75 ai g/ha after 20 days by green house test; format: functional
[4] = Toxicity against Triticum aestivum Yang Mai 1 (wheat) assessed as growth inhibition at 225 ai g/ha post-emergent application measured after 20 days by green house crop selectivity test; format: organism-based; settings: Yang Mai 1, triticum aestivum, in vivo, read-out: GI
Daucus carota [5] = assay: Post-emergence herbicidal activity against Daucus carota (carrot) assessed as growth inhibition at 450 ai g/ha after 20 days by green house test; format: functional
Medicago sativa [6] = assay: Post-emergence herbicidal activity against Medicago sativa (alfalfa) assessed as growth inhibition at 450 ai g/ha after 20 days by green house test; format: functional
[7] = Toxicity against Zea mays Gao you 1 (maize) assessed as growth inhibition at 225 ai g/ha post-emergent application measured after 20 days by green house crop selectivity test; format: organism-based; settings: Gao you 1, zea mays, in vivo, read-out: GI
Daucus carota [8] = assay: Post-emergence herbicidal activity against Daucus carota (carrot) assessed as growth inhibition at 75 ai g/ha after 20 days by green house test; format: functional
Cardamine hirsuta [9] = assay: Post-emergence herbicidal activity against Cardamine hirsuta assessed as growth inhibition at 300 ai g/ha after 20 days by green house test; format: functional
[10] = Toxicity against Zea mays Gao you 1 (maize) assessed as growth inhibition at 600 ai g/ha post-emergent application measured after 20 days by green house crop selectivity test; format: organism-based; settings: Gao you 1, zea mays, in vivo, read-out: GI
Amaranthus retroflexus = assay: Post-emergence herbicidal activity against Amaranthus retroflexus assessed as growth inhibition at 75 ai g/ha after 20 days by green house test; format: functional
[11] = Toxicity against Triticum aestivum Yang Mai 1 (wheat) assessed as growth inhibition at 450 ai g/ha post-emergent application measured after 20 days by green house crop selectivity test; format: organism-based; settings: Yang Mai 1, triticum aestivum, in vivo, read-out: GI
[12] = tested on: Brassica rapa subsp. oleifera; assay: Post-emergence herbicidal activity against Brassica rapa subsp. oleifera Si Yue Man assessed as growth inhibition at 37.5 ai g/ha after 20 days by green house test; format: functional
[13] = Toxicity against Oryza sativa (rice) assessed as growth inhibition at 225 ai g/ha post-emergent application measured after 20 days by green house crop selectivity test; format: organism-based; settings: in vivo, read-out: GI
[14] = Toxicity against Triticum aestivum Yang Mai 1 (wheat) assessed as growth inhibition at 600 ai g/ha post-emergent application measured after 20 days by green house crop selectivity test; format: organism-based; settings: Yang Mai 1, triticum aestivum, in vivo, read-out: GI
[15] = Toxicity against Oryza sativa (rice) assessed as growth inhibition at 600 ai g/ha post-emergent application measured after 20 days by green house crop selectivity test; format: organism-based; settings: in vivo, read-out: GI
[16] = Toxicity against Oryza sativa (rice) assessed as growth inhibition at 300 ai g/ha post-emergent application measured after 20 days by green house crop selectivity test; format: organism-based; settings: in vivo, read-out: GI
Cardamine hirsuta [17] = assay: Post-emergence herbicidal activity against Cardamine hirsuta assessed as growth inhibition at 450 ai g/ha after 20 days by green house test; format: functional
Xanthium strumarium [18] = assay: Post-emergence herbicidal activity against Xanthium strumarium (cocklebur) assessed as growth inhibition at 18.75 ai g/ha after 20 days by green house test; format: functional
Medicago sativa [19] = assay: Post-emergence herbicidal activity against Medicago sativa (alfalfa) assessed as growth inhibition at 75 ai g/ha after 20 days by green house test; format: functional
Digitaria sanguinalis = assay: Post-emergence herbicidal activity against Digitaria sanguinalis (hairy crabgrass) assessed as growth inhibition at 225 ai g/ha after 20 days by green house test; format: functional
Xanthium strumarium [20] = assay: Post-emergence herbicidal activity against Xanthium strumarium (cocklebur) assessed as growth inhibition at 75 ai g/ha after 20 days by green house test; format: functional
Oryza sativa = assay: Inhibition of PDHc in Oryza sativa (rice) shoot mitochondria assessed as decrease in rate of NADH formation using sodium pyruvate as substrate at 10 microg/g preincubated for 25 min before substrate addition measured after 1 min by spectrophotometric assay
[21] = Inhibition of PDHc in Oryza sativa (rice) shoot mitochondria assessed as decrease in rate of NADH formation using sodium pyruvate as substrate preincubated for 25 min before substrate addition measured after 1 min by spectrophotometric assay
Medicago sativa [22] = assay: Post-emergence herbicidal activity against Medicago sativa (alfalfa) assessed as growth inhibition at 37.5 ai g/ha after 20 days by green house test; format: functional
Daucus carota [23] = assay: Post-emergence herbicidal activity against Daucus carota (carrot) assessed as growth inhibition at 37.5 ai g/ha after 20 days by green house test; format: functional
Medicago sativa [24] = assay: Post-emergence herbicidal activity against Medicago sativa (alfalfa) assessed as growth inhibition at 18.75 ai g/ha after 20 days by green house test; format: functional
Portulaca oleracea [25] = assay: Post-emergence herbicidal activity against Portulaca oleracea assessed as growth inhibition at 150 ai g/ha after 20 days by green house test; format: functional
[26] = biological target: Pyruvate dehydrogenase complex (Vigna radiata var. radiata); assay: Inhibition of PDHc in Vigna radiata var. radiata VC2778A shoot mitochondria assessed as decrease in rate of NADH formation using sodium pyruvate as substrate preincubated for 25 min before substrate addition measured after 1 min by spectrophotometric assay; format: protein-complex assay
Eclipta prostrata [27] = assay: Post-emergence herbicidal activity against Eclipta prostrata assessed as growth inhibition at 37.5 ai g/ha after 20 days by green house test; format: functional
[28] = tested on: Brassica rapa subsp. oleifera; assay: Post-emergence herbicidal activity against Brassica rapa subsp. oleifera Si Yue Man assessed as growth inhibition at 300 ai g/ha after 20 days by green house test; format: functional
Portulaca oleracea [29] = assay: Post-emergence herbicidal activity against Portulaca oleracea assessed as growth inhibition at 18.75 ai g/ha after 20 days by green house test; format: functional
[30] = Toxicity against Triticum aestivum Yang Mai 1 (wheat) assessed as growth inhibition at 300 ai g/ha post-emergent application measured after 20 days by green house crop selectivity test; format: organism-based; settings: Yang Mai 1, triticum aestivum, in vivo, read-out: GI
Eclipta prostrata [31] = assay: Post-emergence herbicidal activity against Eclipta prostrata assessed as growth inhibition at 300 ai g/ha after 20 days by green house test; format: functional
Portulaca oleracea [32] = assay: Post-emergence herbicidal activity against Portulaca oleracea assessed as growth inhibition at 450 ai g/ha after 20 days by green house test; format: functional
Eclipta prostrata [33] = assay: Post-emergence herbicidal activity against Eclipta prostrata assessed as growth inhibition at 150 ai g/ha after 20 days by green house test; format: functional
[34] = Toxicity against Zea mays Gao you 1 (maize) assessed as growth inhibition at 300 ai g/ha post-emergent application measured after 20 days by green house crop selectivity test; format: organism-based; settings: Gao you 1, zea mays, in vivo, read-out: GI
Xanthium strumarium [35] = assay: Post-emergence herbicidal activity against Xanthium strumarium (cocklebur) assessed as growth inhibition at 150 ai g/ha after 20 days by green house test; format: functional
Eclipta prostrata [36] = assay: Post-emergence herbicidal activity against Eclipta prostrata assessed as growth inhibition at 75 ai g/ha after 20 days by green house test; format: functional

Question: For COP(=O)(OC)C(C)OC(=O)COc1ccc(Cl)cc1Cl (centres undefined) [CLACYFOS], which “growth inhibition (GI)” value [1] is on record?
Answer: 100%

Question: What about the “growth inhibition (GI)” value (Medicago sativa [2]) of the same compound?
Answer: 90%

Question: What about the “growth inhibition (GI)” value (Eclipta prostrata [3]) of the same compound?
Answer: 56%

Question: And the inhibition at 480 h [4]?
Answer: 0%

Question: And the “growth inhibition (GI)” value (Daucus carota [5])?
Answer: 100%

Question: And the “growth inhibition (GI)” value (Medicago sativa [6])?
Answer: 100%

Question: And the inhibition at 480 h [7]?
Answer: 0%

Question: And the “growth inhibition (GI)” value (Daucus carota [8])?
Answer: 90%

Question: What about the “growth inhibition (GI)” value (Cardamine hirsuta [9]) of the same compound?
Answer: 100%

Question: And the inhibition at 480 h [10]?
Answer: 0%

Question: And the “growth inhibition (GI)” value (Amaranthus retroflexus)?
Answer: 90%

Question: What about the inhibition at 480 h [11] of the same compound?
Answer: 0%

Question: And the “growth inhibition (GI)” value [12]?
Answer: 90%

Question: What about the inhibition at 480 h [13] of the same compound?
Answer: 0%

Question: What about the inhibition at 480 h [14] of the same compound?
Answer: 0%

Question: What about the inhibition at 480 h [15] of the same compound?
Answer: 0%

Question: And the inhibition at 480 h [16]?
Answer: 0%

Question: What about the “growth inhibition (GI)” value (Cardamine hirsuta [17]) of the same compound?
Answer: 100%

Question: And the “growth inhibition (GI)” value (Xanthium strumarium [18])?
Answer: 50%

Question: And the “growth inhibition (GI)” value (Medicago sativa [19])?
Answer: 84%

Question: And the “growth inhibition (GI)” value (Digitaria sanguinalis)?
Answer: 22.5%

Question: What about the “growth inhibition (GI)” value (Xanthium strumarium [20]) of the same compound?
Answer: 72%

Question: And the inhibition (Oryza sativa)?
Answer: 16.9%

Question: And the pIC50 [21]?
Answer: 3.06

Question: And the “growth inhibition (GI)” value (Medicago sativa [22])?
Answer: 72%

Question: And the “growth inhibition (GI)” value (Daucus carota [23])?
Answer: 85%

Question: And the “growth inhibition (GI)” value (Medicago sativa [24])?
Answer: 60%

Question: What about the “growth inhibition (GI)” value (Portulaca oleracea [25]) of the same compound?
Answer: 85%

Question: What about the pIC50 [26] of the same compound?
Answer: 4.89

Question: What about the “growth inhibition (GI)” value (Eclipta prostrata [27]) of the same compound?
Answer: 72%

Question: What about the “growth inhibition (GI)” value [28] of the same compound?
Answer: 100%

Question: What about the “growth inhibition (GI)” value (Portulaca oleracea [29]) of the same compound?
Answer: 50%

Question: And the inhibition at 480 h [30]?
Answer: 0%

Question: What about the “growth inhibition (GI)” value (Eclipta prostrata [31]) of the same compound?
Answer: 100%

Question: And the “growth inhibition (GI)” value (Portulaca oleracea [32])?
Answer: 100%

Question: And the “growth inhibition (GI)” value (Eclipta prostrata [33])?
Answer: 90%

Question: What about the inhibition at 480 h [34] of the same compound?
Answer: 0%

Question: And the “growth inhibition (GI)” value (Xanthium strumarium [35])?
Answer: 90%

Question: And the “growth inhibition (GI)” value (Eclipta prostrata [36])?
Answer: 82.5%
